PMC4965013, “Open Source Drug Discovery with the Malaria Box Compound Collection for Neglected Diseases and Beyond” (PLoS Pathogens, 2016)
Where two headings read alike, the source gives them in different places.

Experiments:
[1] = system: Perkinsus marinus trophozoites; parameters: method as in ref [96] (a number printed in a supplementary file, which may have a reference list of its own: not looked up in the article's list); conditions: 20µM; ref [96]; cited from earlier work
[2] = system: Mycobacterium tuberculosis mc26220 replicating; assay: microbe, parasite or virus in culture; type: cell-based
[3] = system: P. falciparum NF54 gametocytes stage IV/V; assay: Gametocyte PrestoBlue resazurin assay Mancama; type: cell-based; conditions: Plasmodium falciparum, NF54; 5µM; read-out: NF54 gametocyte Late Stage IV/V Resazurin %inhibition
zebrafish embryos = assay: Zebrafish embryo toxicity, mortality, behaviour; type: in vivo; conditions: 10µM
Method: Columns FE-FG: BIOBIDE group (data presented first in this paper). Zebrafish embryo toxicity, mortality, and behaviour change. 3 days post fertilization (dPf) zebrafish embryos from AB strain (wild type) were used for in vivo toxicity and behavioural screening. […] Then, embryos were incubated with each compound at 10 µM (1% DMSO) in E3 buffered with HEPES at 10 mM for 48 hours in 24 well plates, 5 embryos per well, 3 wells per condition (n=15). A group treated only with the vehicle was included in each plate as negative control. Afterwards, mortality and morphological alterations were assessed. Toxicity: When an altered phenotype (mortality, developmental abnormalities) appeared in more than 20% of cases it was considered toxic. […] For this purpose, 5dPf larvae (treated and negative controls) were transferred from 24-well treatment plate to 96-well plate, one embryo per well. 96-well plate was introduced in DanioVision system powered by Ethovision (Noldus). The behaviour was evaluated recording a total of 40 minutes in a round of 10 minutes under light and 10 minutes in darkness repeated twice. As activity is expected to differ under light and dark periods, the analysis was performed for each one of the 10 minutes phases. The differences between treated and controls for each parameter (distance, velocity) and phase was considered significant if p value is less than 0.005 (scored y for yes in HeatMap). Also, the p values between 0.01 and 0.005 were taken into account as an indicator of tendency (scored m for maybe in heat map). The toxic character of a compound was determined by the consistent differences (in both dark and light periods) between treated embryos and controls. […] If consistent results could not be obtained, the compound was scored i for indeterminate.

T. cruzi Tulahuen = conditions: ref [84]; read-out: Trypanosoma cruzi Tulahuen intracellular amastigotes in MRC5 cell line EC50; cited from earlier work
[4] = system: P. falciparum 3D7, HB3, Dd2, W2, K1, FCR3; assay: Asexual EC50 image assay, six strains, Ayong; type: cell-based; conditions: Plasmodium falciparum
P. falciparum Dd2 [5] = assay: P. falciparum Dd2 asexual blood stages Scynexis; type: cell-based; conditions: Plasmodium falciparum
[6] = system: HIV-1 JR-FL or HIV-1 NL4-3 pseudoviruses; assay: HIV-1 pseudovirus infection luciferase; type: cell-based
Method: Columns FK-GB, Moore group (data presented first in this paper). HIV and HIV-producing cell lines, toxicity and viral suppression. […] MMV compounds were incubated with HIV-1 JR-FL or HIV-1 NL4-3 pseudoviruses and U87-CD4-CCR5 or U87-CD4-CXCR4 cells (obtained through the NIH AIDS Reagent Program, Division of AIDS, NIAID, NIH: U87 CD4+CCR5+ Cells from Dr. HongKui Deng and Dr. Dan R. Littman) respectively for 3 days. Cells were assayed for infection by luciferase production (Bright-Glo Luciferase Substrate, Promega) and cell viability by MTT assay. […] MMV compounds were next incubated with HIV-1 JR-FL or HIV-1 NL4-3 viruses and U87-CD4-CCR5 or U87-CD4-CXCR4 cells respectively for 7 days. Cell supernatants were assayed for viral production by p24 ELISA [153] and cell viability by MTT assay. […] DMSO (5%) was completely toxic to all cells (based on visual inspection) and served as the positive control for MTT assays.

A. ceylanicum L3 larvae = A. ceylanicum L3 larvae J. Keiser; type: cell-based, Ancylostoma ceylanicum; conditions: 200µM
Haemonchus contortus = Haemonchus contortus Scynexis; type: cell-based; conditions: 10µM
[7] = system: Saccharomyces cerevisiae ABC16-Monster; assay: S. cerevisiae ABC16-Monster growth inhibition; type: cell-based; conditions: ABC16MONSTER, read-out: S. cerevisiae strain ABC16-Monster in YPD % inhibition
Method: Column EA: Suzuki group (data presented first in this paper). Screening of MMV compounds for Saccharomyces cerevisiae ABC16-Monster growth inhibition. Methods: Compounds were added at 100 micromolar to YPD medium (1% yeast extract, 2% peptone, and 2% glucose). Only the solvent dimethyl sulfoxide (DMSO) without any MMV compound was added at 1% to the negative control. The initial density of ABC16-Monster cells corresponded to optical density at 600 nanometers (OD600) of 0.01. Cells were cultured without agitation in a 96-well plate at 30 degrees Celsius for 18 hours and then resuspended for measurement of OD600. For each compound, two cultures were conducted and examined. The average OD600 value was used. To calculate percent inhibition, OD600 for cells cultured with a compound was divided by OD600 for the negative control. The ABC16-Monster yeast strain was previously described.

[8] = system: Leishmania infantum MHOM/MA/BE/67; conditions: ref [84]; read-out: Leishmania infantum EC50 intracellular amastigotes in primary macrophages; cited from earlier work
P. falciparum Dd2 [9] = assay: Malaria Sybr Green I Fluorescence assay Dd2 Horrocks; type: cell-based; conditions: Plasmodium falciparum, DD2, 48 h; read-out: P. falciparum Dd2 asexual blood stage EC50 Horrocks
Summary of the method: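 Dd2 asexual parasites started at 2% trophozoite-stage parasitaemia and 2% hematocrit; growth read by SYBR Green I fluorescence after 48 h. IC50 values taken from log dose-response curves.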

Trypanosoma cruzi = assay: T. cruzi Scynexis; type: cell-based
[10] = system: Trypanosoma brucei rhodesiense STIB 900; conditions: ref [84]; cited from earlier work
[11] = read-out: P. falciparum 3D7 asexual blood stage EC50 (Image) Ayong
[12] = read-out: P. falciparum Dd2 asexual blood stage EC50 (Image) Ayong
[13] = read-out: P. falciparum FCR3 asexual blood stage EC50 (Image) Ayong
[14] = read-out: P. falciparum HB3 asexual blood stage EC50 (Image) Ayong
[15] = read-out: P. falciparum K1 asexual blood stage EC50 (Image) Ayong
[16] = read-out: P. falciparum W2 asexual blood stage EC50 (Image) Ayong
[17] = Human immunodeficiency virus 1, NL43, read-out: HIV JRFL % inhibition rep1 in U87 Luc
[18] = Human immunodeficiency virus 1, NL43, read-out: HIV JRFL % inhibition rep2 in U87 Luc
[19] = Human immunodeficiency virus 1, NL43, read-out: HIV NL4-3 % inhibition rep1 in U87 Luc

Compound	Perkinsus marinus % growth [1] [%]	inhibition at 25 µM [2] [%]	inhibition at 5 µM [3] [%]	Zebrafish % mortality (zebrafish embryos) [%]	Zebrafish Toxicity (mortality and dev abnl) (zebrafish embryos)	EC50 (T. cruzi Tulahuen) [nM]	EC50 [4, 11] [nM]	EC50 [4, 12] [nM]	EC50 [4, 14] [nM]	EC50 [4, 16] [nM]	inhibition at 10 µM (P. falciparum Dd2 [5]) [%]	inhibition at 5 µM [6, 17] [%]	inhibition at 5 µM [6, 18] [%]	inhibition at 5 µM [6, 19] [%]	Anyclostoma ceylanicum L3 larvae effect (%) (A. ceylanicum L3 larvae)	Haemonchus contortus 96hr % dead (Haemonchus contortus) [%]	inhibition at 100 µM [7] [%]	EC50 [8] [nM]	EC50 (P. falciparum Dd2 [9]) [nM]	inhibition at 5 µM (Trypanosoma cruzi) [%]	other results
CCN1CCN(c2cc(C)c3cc(NC(=O)c4ccc(OC)c(OC)c4)ccc3n2)CC1 [MMV019074]	92	15	64	0	y (altered phenotype (mortality, developmental abnormalities) appeared in more than 20% of cases it was considered toxic)	6590	904	1270	1500	2950	80	11	-62	13	0	31	3.48	6350	1850	13	EC50 [4, 13]: 2610 nM; EC50 [4, 15]: 1320 nM; EC50 [10]: 3220 nM
COc1ccc(C(=O)Nc2ccc3nc(N4CCCCC4)cc(C)c3c2)cc1OC [MMV019758]	101	21	18	13	y (altered phenotype (mortality, developmental abnormalities) appeared in more than 20% of cases it was considered toxic)	14600	1600	3290	3440	4470	36	4.56	-50	7	0	75	-8	16200	614	71	EC50 [10]: 10900 nM
COc1cc2cc(C(=O)Nc3ccccc3)c(N)nc2cc1OC [MMV006767]	44	17	0	0	y (altered phenotype (mortality, developmental abnormalities) appeared in more than 20% of cases it was considered toxic)		592	357	812	797	40	93	64	96	0	57	24		884	86	EC50 [4, 13]: 931 nM; EC50 [4, 15]: 1490 nM
CCOC(=O)c1cnc2ccc(OC)cc2c1NCc1ccccc1 [MMV665813]	69	40	0	100	y (altered phenotype (mortality, developmental abnormalities) appeared in more than 20% of cases it was considered toxic)	13000		3320			55	-33	-10	-135	0	1	-1.7	10100	4890	-49	EC50 [10]: 4950 nM
CCN(CC)c1cc(C)c2cc(NC(=O)c3cccc(OC)c3)ccc2n1 [MMV000498]	74	19	70	0		13700	1800	2450	2800	2740	8	-9	52	15	0	100	-6	16200	2770	98	EC50 [4, 13]: 4560 nM; EC50 [4, 15]: 3530 nM; EC50 [10]: 679 nM
